Measurements as given in ChEMBL document CHEMBL1201862, “PubChem BioAssay data set” (2004).
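Exposure lasted 48 hours, with cells grown in 96-well plates and compounds tested at five concentrations. GI50 marks 50% less growth.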 Activity calls are given as the source filed them. No stated cut-off is given here; in the data, active = GI50 up to about 1.1 µM and inactive = higher. Where a SMILES comes first, the peptide text is derived from it. [ ]: non-standard residue; d: D form. The star is where a group is joined. ξ: configuration not given here. NMeF = CN[CH](Cc1ccccc1)C(=O)O; ξNMe2Val = CC(C)C(C(=O)*)N(C)C; NMeV = CN[CH](C(=O)O)C(C)C; OtBu = CC(C)(C)O*

Experiments:
Experiment in all cases: inhibition of tumour cell growth, NCI panel, 48 h
NCI-H460 = test system: NCI-H460
KM12 = test system: KM12
SNB-19 = test system: SNB-19
MOLT-4 = test system: MOLT-4
ACHN = test system: ACHN
HCT-116 = test system: HCT-116
SK-MEL-2 = test system: SK-MEL-2
SN12C = test system: SN12C
A498 = test system: A498
U-251 = test system: U-251
LOX IMVI = test system: LOX IMVI
OVCAR-5 = test system: OVCAR-5
NCI-H226 = test system: NCI-H226
CCRF-CEM = test system: CCRF-CEM
SR = test system: SR

Measured: GI50

CCOC(=O)C1(C(=O)OCC)CC=C(C)CC12C(=O)Nc1ccccc12 (centres undefined)
inactive: NCI-H460 > 100 µM | KM12 > 100 µM | SNB-19 > 100 µM | MOLT-4 > 100 µM | ACHN > 100 µM | HCT-116 > 100 µM | SK-MEL-2 > 100 µM | SN12C > 100 µM | A498 > 100 µM | U-251 > 100 µM | LOX IMVI > 100 µM | OVCAR-5 > 100 µM | NCI-H226 > 100 µM | CCRF-CEM > 100 µM

N#[N+]c1ccccc1Sc1ccc(Cl)cc1
inactive: NCI-H460 > 100 µM | KM12 > 100 µM | MOLT-4 64.7 µM | ACHN > 100 µM | HCT-116 74.3 µM | SK-MEL-2 > 100 µM | A498 > 100 µM | U-251 > 100 µM | OVCAR-5 > 100 µM | NCI-H226 76.9 µM | CCRF-CEM 89.9 µM

C[C@]12CC(C=O)C(=O)C(O)=C1CC[C@@H]1C2CC[C@@]2(C)C1CC[C@]2(C)O (some centres undefined)
inactive: NCI-H460 30.3 µM | KM12 25.5 µM | SNB-19 25.2 µM | MOLT-4 22.3 µM | ACHN 22.3 µM | HCT-116 20 µM | SK-MEL-2 5.02 µM | SN12C 21.2 µM | A498 22.1 µM | U-251 20.4 µM | LOX IMVI 11.5 µM | OVCAR-5 16.5 µM | NCI-H226 18.6 µM | CCRF-CEM > 10 µM

COC(=O)C12C3C4C1C1C2C3C41I (centres undefined)
inactive: NCI-H460 > 100 µM | SNB-19 > 100 µM | MOLT-4 > 100 µM | ACHN > 100 µM | SN12C > 100 µM | A498 > 100 µM | U-251 > 100 µM | OVCAR-5 > 100 µM | NCI-H226 > 100 µM | CCRF-CEM > 100 µM

C/C(=C1/CCC/C(=C(/C)c2ccccc2)C1=O)c1ccccc1
inactive: NCI-H460 27.2 µM | KM12 27 µM | SNB-19 > 100 µM | MOLT-4 21.5 µM | ACHN 38.6 µM | HCT-116 18.5 µM | SK-MEL-2 15.1 µM | SN12C 50.7 µM | U-251 25.3 µM | SR 14.6 µM | LOX IMVI 28.8 µM | OVCAR-5 27.2 µM | NCI-H226 17.4 µM | CCRF-CEM 22.2 µM

CCn1c(=O)c2ccccc2n2c(=O)c3cc4ccccc4cc3nc12
inactive: NCI-H460 > 100 µM | KM12 > 100 µM | SNB-19 52.1 µM | MOLT-4 > 100 µM | ACHN > 100 µM | HCT-116 > 100 µM | SK-MEL-2 > 100 µM | SN12C > 100 µM | A498 > 100 µM | U-251 > 100 µM | LOX IMVI > 100 µM | OVCAR-5 > 100 µM | NCI-H226 > 100 µM | CCRF-CEM > 100 µM

O=c1c2ccccc2nc(-c2ccccc2)n1NCC1(O)OCC(O)C(O)C1O (centres undefined)
inactive: NCI-H460 30.1 µM | KM12 > 100 µM | SNB-19 > 100 µM | MOLT-4 14 µM | ACHN 95.7 µM | HCT-116 > 100 µM | SK-MEL-2 > 100 µM | SN12C > 100 µM | A498 > 100 µM | U-251 87.3 µM | OVCAR-5 > 100 µM | NCI-H226 > 100 µM | CCRF-CEM 33.1 µM

COc1cc2cnc3c4ccccc4ccc3c2cc1OC
inactive: NCI-H460 > 100 µM | KM12 > 100 µM | SNB-19 > 100 µM | MOLT-4 > 100 µM | ACHN > 100 µM | SK-MEL-2 > 100 µM | SN12C > 100 µM | A498 > 100 µM | U-251 > 100 µM | OVCAR-5 > 100 µM | CCRF-CEM > 100 µM

CC(C)N1CCC2(CC1)NNc1ncccc1-n1cccc12
inactive: NCI-H460 > 100 µM | KM12 > 100 µM | SNB-19 > 100 µM | MOLT-4 > 100 µM | ACHN > 100 µM | HCT-116 > 100 µM | SK-MEL-2 > 100 µM | SN12C > 100 µM | U-251 > 100 µM | LOX IMVI > 100 µM | OVCAR-5 > 100 µM | NCI-H226 > 100 µM | CCRF-CEM > 100 µM

CC(=O)NC1=C(NCC(C)C)C(=O)c2ccccc2C1=O
inactive: NCI-H460 34.7 µM | KM12 42.9 µM | SNB-19 38.3 µM | MOLT-4 29.4 µM | ACHN > 100 µM | HCT-116 20.3 µM | SK-MEL-2 26 µM | SN12C 16.9 µM | A498 83.2 µM | U-251 40.2 µM | LOX IMVI 15.5 µM | OVCAR-5 65.9 µM | NCI-H226 16 µM | CCRF-CEM 7.18 µM

Cc1ccccc1-c1cc(=O)c2cc(C)c(C)c(C(=O)O)c2o1
inactive: NCI-H460 > 100 µM | KM12 > 100 µM | SNB-19 > 100 µM | MOLT-4 > 100 µM | ACHN > 100 µM | HCT-116 > 100 µM | SK-MEL-2 > 100 µM | SN12C > 100 µM | U-251 > 100 µM | SR > 100 µM | LOX IMVI > 100 µM | OVCAR-5 > 100 µM | NCI-H226 > 100 µM | CCRF-CEM > 100 µM

NCCCSCC(=O)O
inactive: KM12 > 100 µM | SNB-19 > 100 µM | MOLT-4 > 100 µM | ACHN > 100 µM | HCT-116 > 100 µM | SK-MEL-2 > 100 µM | SN12C > 100 µM | U-251 > 100 µM | OVCAR-5 > 100 µM | NCI-H226 > 100 µM

COc1ccc(/C(Cl)=C(\c2ccc(OCCN(C)C)cc2)c2ccc(OC(=O)C(C)(C)C)cc2)cc1
inactive: NCI-H460 10.3 µM | KM12 13.5 µM | SNB-19 16 µM | MOLT-4 2.91 µM | ACHN 16 µM | HCT-116 12.1 µM | SK-MEL-2 15.9 µM | SN12C 13.4 µM | U-251 13.6 µM | SR 7.69 µM | LOX IMVI 6.61 µM | OVCAR-5 15.7 µM | NCI-H226 12.9 µM | CCRF-CEM 11 µM

O=c1cc(-c2ccccc2)oc2cc(OCCCCCCCCCCOc3ccc4c(=O)cc(-c5ccccc5)oc4c3)ccc12
inactive: KM12 > 100 µM | SNB-19 > 100 µM | MOLT-4 > 100 µM | ACHN > 100 µM | HCT-116 > 100 µM | SK-MEL-2 > 100 µM | SN12C 42.5 µM | U-251 > 100 µM | SR > 100 µM | OVCAR-5 > 100 µM | CCRF-CEM > 100 µM

CC(C)C(C(=O)N(C)C(Cc1ccccc1)C(=O)N(C)C(C(=O)N(C)C(C(=O)N1CCCC1C(=O)OC(C)(C)C)C(C)C)C(C)C)N(C)C (centres undefined) (ξNMe2Val-[NMeF][NMeV][NMeV]P-OtBu; configuration not given here)
inactive: NCI-H460 43.2 µM | KM12 40.6 µM | SNB-19 58.3 µM | MOLT-4 13.9 µM | ACHN 65 µM | HCT-116 33.6 µM | SN12C 50.1 µM | U-251 > 10 µM | SR 25.4 µM | LOX IMVI 22.9 µM | NCI-H226 > 100 µM | CCRF-CEM 31.6 µM
